In this assay the test system is CD2F1 mice, L1210 leukemia ip, survival T/C. The assay can be described thus: NCI In Vivo Anticancer Drug Screen. Data for tumor model L1210 Leukemia (intraperitoneal) in CD2F1 (CDF1) mice. The conditions noted are these: higher = longer survival. A digest of the protocol: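 Implant tumor; dose compound or vehicle; measure endpoint in both groups; report treated divided by control.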

Where [1] appears, read: endpoint: mean survival time, dose: 100.0 mg/kg/injection, schedule: Q01DX009 (ip), vehicle: saline with Tween-80.
Where [2] appears, read: endpoint: mean survival time, dose: 200.0 mg/kg/injection, schedule: Q01DX009 (ip), vehicle: saline with Tween-80.
[3] abbreviates: endpoint: mean survival time, dose: 400.0 mg/kg/injection, schedule: Q01DX009 (ip), vehicle: saline with Tween-80.
[4] abbreviates: endpoint: mean survival time, dose: 100.0 mg/kg/injection, schedule: Q01DX001 (ip), vehicle: saline with Tween-80.
[5] abbreviates: endpoint: mean survival time, dose: 200.0 mg/kg/injection, schedule: Q01DX001 (ip), vehicle: saline with Tween-80.
[6] abbreviates: endpoint: mean survival time, dose: 400.0 mg/kg/injection, schedule: Q01DX001 (ip), vehicle: saline with Tween-80.
Setting [7] is: endpoint: mean survival time, dose: 100.0 mg/kg/injection, schedule: Q04DX003 (ip), vehicle: saline with Tween-80.
The mark [8] stands for this setting: endpoint: mean survival time, dose: 200.0 mg/kg/injection, schedule: Q04DX003 (ip), vehicle: saline with Tween-80.
The mark [9] stands for this setting: endpoint: mean survival time, dose: 400.0 mg/kg/injection, schedule: Q04DX003 (ip), vehicle: saline with Tween-80.
The mark [10] stands for this setting: endpoint: mean survival time, dose: 25.0 mg/kg/injection, schedule: Q04DX003 (ip), vehicle: saline with Tween-80.
The mark [11] stands for this setting: endpoint: mean survival time, dose: 50.0 mg/kg/injection, schedule: Q04DX003 (ip), vehicle: saline with Tween-80.

Several values for one entry are separate records, joined by “and”; a condition that tells them apart may be missing. Equal entries are not always repeated. Inconclusive results and toxic doses are left out.

Regarding `C[n+]1c(O)c(C(=O)CCl)n2cc([N+](=O)[O-])ccc21`, the T/C by setting is: (endpoint: mean survival time, dose: 12.5 mg/kg/injection, schedule: Q01DX009 (ip), vehicle: acetone) 95 % of control; (endpoint: mean survival time, dose: 25.0 mg/kg/injection, schedule: Q01DX009 (ip), vehicle: acetone) 101 % of control; (endpoint: mean survival time, dose: 50.0 mg/kg/injection, schedule: Q01DX009 (ip), vehicle: acetone) 90 % of control.
Regarding `O=C(Cc1ccccc1)NCc1ccccc1`, the T/C reads like this: (endpoint: mean survival time, dose: 6.25 mg/kg/injection, schedule: Q01DX001 (ip), vehicle: saline) 101 % of control; (endpoint: mean survival time, dose: 12.5 mg/kg/injection, schedule: Q01DX001 (ip), vehicle: saline) 94 % of control; (endpoint: mean survival time, dose: 25.0 mg/kg/injection, schedule: Q01DX001 (ip), vehicle: saline) 101 % of control.
In the case of `CCCCCCCCCSCC`, the T/C reads like this: under setting [1], 100 % of control; under setting [2], 100 % of control; under setting [3], 88 % of control.
For the compound `COc1cc(C(=O)O)cc(OC)c1OC`, the T/C under setting [4] is 97 % of control, the T/C under setting [5] is 97 % of control and the T/C under setting [6] is 97 % of control.
On to `CCCCCCC(C)c1cc(C)c(O)c(CN(C)C)c1` (stereo not drawn), for which the T/C runs as follows: (endpoint: mean survival time, dose: 100.0 mg/kg/injection, schedule: Q04DX003 (ip), vehicle: saline) 91 % of control; (endpoint: mean survival time, dose: 200.0 mg/kg/injection, schedule: Q04DX003 (ip), vehicle: saline) 95 % of control.
On to `Cc1nc2ccc(Cl)cc2c(=O)o1`, for which the T/C reads like this: under setting [1], 103 % of control; under setting [7], 96 % of control; under setting [2], 103 % of control; under setting [8], 93 % of control; under setting [3], 96 % of control; under setting [9], 93 % of control.
Regarding `COc1ccc(OC)c(-c2cn(C3CC(O)C(CO)O3)c(=O)[nH]c2=O)c1` (stereo not drawn), the T/C (endpoint: median survival time, dose: 12.5 mg/kg/injection, schedule: Q01DX005 (ip), vehicle: water) is 100 % of control; the T/C (endpoint: median survival time, dose: 25.0 mg/kg/injection, schedule: Q01DX005 (ip), vehicle: water) is 102 % of control; the T/C (endpoint: median survival time, dose: 50.0 mg/kg/injection, schedule: Q01DX005 (ip), vehicle: water) is 97 % of control; the T/C (endpoint: median survival time, dose: 100.0 mg/kg/injection, schedule: Q01DX005 (ip), vehicle: water) is 102 % of control; the T/C (endpoint: median survival time, dose: 200.0 mg/kg/injection, schedule: Q01DX005 (ip), vehicle: water) was 98 % of control.
Regarding `OCC1=CCN(CCc2c[nH]c3ccccc23)CC1`, the T/C by setting is: under setting [1], 96 % of control; under setting [2], 96 % of control.
On to `O=C(O)c1cc2ccccc2oc1=O`, for which the T/C was 103 % of control (endpoint: mean survival time, dose: 2.5 mg/kg/injection, schedule: Q01DX009 (ip), vehicle: Klucel (hydroxypropylcellulose) (HPC)); 108 % of control (endpoint: mean survival time, dose: 5.0 mg/kg/injection, schedule: Q01DX009 (ip), vehicle: Klucel (hydroxypropylcellulose) (HPC)); 108 % of control (endpoint: mean survival time, dose: 10.0 mg/kg/injection, schedule: Q01DX009 (ip), vehicle: Klucel (hydroxypropylcellulose) (HPC)); 104 % of control under setting [10]; 112 % of control under setting [11].
For `C=CC1CN2CCC1CC2C(O)c1ccnc2ccccc12` (stereo not drawn) (tested in a mixture with another compound), the T/C was 100 % of control under setting [10]; 100 % of control (endpoint: mean survival time, dose: 50.0 mg/kg/injection, schedule: Q01DX001 (ip), vehicle: saline with Tween-80); 96 % of control (endpoint: mean survival time, dose: 50.0 mg/kg/injection, schedule: Q01DX009 (ip), vehicle: saline with Tween-80); 98 % of control under setting [11]; 96 % of control and 92 % of control under setting [4]; 98 % of control under setting [1]. Also, the T/C runs as follows: under setting [7], 93 % of control and 100 % of control; under setting [5], 104 % of control and 92 % of control; under setting [2], 90 % of control.
Take `Cc1cccc(/C=C2\Cc3ccccc3C2=O)c1`: the T/C under setting [4] is 103 % of control, the T/C under setting [5] was 95 % of control and the T/C under setting [6] was 103 % of control.
Take `COC1OC(C2N(c3ccccc3)CCN2c2ccccc2)=CC(OC(C)=O)C1OC(C)=O` (stereo not drawn): the T/C runs as follows: under setting [7], 97 % of control; under setting [8], 107 % of control; under setting [9], 95 % of control.
With `O=C(OC12CCCC1CC2)c1ccc([N+](=O)[O-])cc1` (stereo not drawn), the T/C under setting [1] was 97 % of control and the T/C under setting [2] is 95 % of control.
With `Cc1c2ccccc2c(C)c2cnccc12`, the T/C under setting [1] was 97 % of control, the T/C under setting [2] was 97 % of control and the T/C under setting [3] is 92 % of control.
Turning to `CC1=CC(C)(C(Cl)Cl)C=CC1=O` (stereo not drawn), the T/C (endpoint: mean survival time, dose: 75.0 mg/kg/injection, schedule: Q01DX009 (ip), vehicle: saline with Tween-80) is 101 % of control; the T/C under setting [7] was 102 % of control; the T/C (endpoint: mean survival time, dose: 150.0 mg/kg/injection, schedule: Q01DX009 (ip), vehicle: saline with Tween-80) is 101 % of control; the T/C under setting [8] is 95 % of control; the T/C (endpoint: mean survival time, dose: 300.0 mg/kg/injection, schedule: Q01DX009 (ip), vehicle: saline with Tween-80) was 98 % of control; the T/C under setting [9] was 93 % of control.
Turning to `COC(CCl)(CCl)OC`, the T/C (endpoint: mean survival time, dose: 10.0 mg/kg/injection, schedule: Q01DX009 (ip), vehicle: saline with Tween-80) was 87 % of control and the T/C (endpoint: mean survival time, dose: 20.0 mg/kg/injection, schedule: Q01DX009 (ip), vehicle: saline with Tween-80) was 90 % of control.
Turning to `CNS(=O)(=O)Cc1ccccc1`, the T/C is, setting by setting: under setting [7], 91 % of control; under setting [8], 97 % of control; under setting [9], 94 % of control.
On to `CCOc1ccccc1/C=C1\N=C(c2ccc([N+](=O)[O-])cc2)OC1=O`, for which the T/C (endpoint: mean survival time, dose: 100.0 mg/kg/injection, schedule: Q04DX002 (ip), vehicle: saline with Tween-80) is 95 % of control; the T/C (endpoint: mean survival time, dose: 200.0 mg/kg/injection, schedule: Q04DX002 (ip), vehicle: saline with Tween-80) is 91 % of control; the T/C (endpoint: mean survival time, dose: 400.0 mg/kg/injection, schedule: Q04DX002 (ip), vehicle: saline with Tween-80) was 100 % of control.
Regarding `N=C(N)c1ccc(/C=C/c2ccc(C(=N)N)cc2O)cc1`, the T/C was 91 % of control (endpoint: mean survival time, dose: 3.12 mg/kg/injection, schedule: Q01DX009 (ip), vehicle: water); 97 % of control (endpoint: mean survival time, dose: 6.25 mg/kg/injection, schedule: Q01DX009 (ip), vehicle: water); 103 % of control (endpoint: mean survival time, dose: 12.5 mg/kg/injection, schedule: Q01DX009 (ip), vehicle: water); 105 % of control (endpoint: mean survival time, dose: 25.0 mg/kg/injection, schedule: Q01DX009 (ip), vehicle: water); 111 % of control (endpoint: mean survival time, dose: 50.0 mg/kg/injection, schedule: Q01DX009 (ip), vehicle: water).
For `CS(=O)(=O)OCC(/C=C/C(COS(C)(=O)=O)OS(C)(=O)=O)OS(C)(=O)=O` (stereo not drawn), the T/C was 150 % of control (endpoint: mean survival time, dose: 100.0 mg/kg/injection, schedule: Q01DX009 (ip), vehicle: Klucel (hydroxypropylcellulose) (HPC)) and 175 % of control (endpoint: mean survival time, dose: 200.0 mg/kg/injection, schedule: Q01DX009 (ip), vehicle: Klucel (hydroxypropylcellulose) (HPC)).
`CC(=O)c1ccc(N=NN(C)C)cc1`: the T/C (endpoint: mean survival time, dose: 2.37 mg/kg/injection, schedule: Q01DX009 (ip), vehicle: Klucel (hydroxypropylcellulose) (HPC)) is 96 % of control; the T/C (endpoint: mean survival time, dose: 9.5 mg/kg/injection, schedule: Q01DX009 (ip), vehicle: Klucel (hydroxypropylcellulose) (HPC)) is 96 % of control; the T/C (endpoint: mean survival time, dose: 19.0 mg/kg/injection, schedule: Q01DX009 (ip), vehicle: Klucel (hydroxypropylcellulose) (HPC)) is 110 % of control; the T/C (endpoint: mean survival time, dose: 58.0 mg/kg/injection, schedule: Q01DX009 (ip), vehicle: Klucel (hydroxypropylcellulose) (HPC)) is 101 % of control.
As for `O=C1/C(=C/c2ccccc2)CCCC1/C=C/c1ccccc1` (stereo not drawn), the T/C was 100 % of control under setting [7], 100 % of control under setting [8] and 97 % of control under setting [9].
Take `CCCCCCCCCCCCCCNCCC(=O)O`: the T/C runs as follows: (endpoint: mean survival time, dose: 75.0 mg/kg/injection, schedule: Q01DX001 (ip), vehicle: saline) 98 % of control; (endpoint: mean survival time, dose: 150.0 mg/kg/injection, schedule: Q01DX001 (ip), vehicle: saline) 106 % of control.
Consider `O=[N+]([O-])c1ccc(OCc2ccccc2)cc1`, for which the T/C by setting is: under setting [1], 98 % of control; under setting [2], 98 % of control; under setting [3], 98 % of control.
For the compound `C/C(=N/O)C1=C(O)C(Cc2ccccc2)NC1=O` (stereo not drawn), the T/C is 100 % of control (endpoint: mean survival time, dose: 12.5 mg/kg/injection, schedule: Q04DX002 (ip), vehicle: saline with Tween-80); 121 % of control (endpoint: mean survival time, dose: 25.0 mg/kg/injection, schedule: Q04DX002 (ip), vehicle: saline with Tween-80); 103 % of control (endpoint: mean survival time, dose: 50.0 mg/kg/injection, schedule: Q04DX002 (ip), vehicle: saline with Tween-80).

These data come from PubChem BioAssay AID256 (DTP/NCI, 2004).
